Consider one compound from the NIST ThermoML archive (doi:10.1016/j.jct.2015.07.039).

Each structure is given as a SMILES string. ± gives the expanded uncertainty stated by the source.

Data set [1] can be described thus: refractive index (Na D-line) (dimensionless). To be noted: 298.15 K; 101.33 kPa; Liquid; Standard Abbe refractometry.
The conditions of data set [2]: 298.15 K; 101.33 kPa; Liquid; Vibrating tube method.

On to `CCCCl` [1-chloropropane], for which the refractive index in data set [1] is given as 1.38526 ± 0.00032. Also, in data set [2], the mass density was 883.81 ± 0.16 kg/m3.
